Measured values: patent US20240239854A1, “ANTIMICROBIAL PEPTIDES AND MODIFICATIONS THEREOF” (Donald Danforth Plant Science Center, priority 2022, published 2024)
Converted amounts (≈) assume the structure as drawn. Read-outs that look alike come from different tables or passages of the source. Residues, ends and D or L forms follow the SMILES beside them. No end group written: not given here.

Key:
[1] = system: Candida glabrata; assay: Antifungal MIC in RPMI medium; settings: RPMI medium rich in cations
[2] = system: Coccidioides sp.; assay type: cell-based; settings: Table 8
[3] = system: F. oxysporum; assay: Antifungal MIC assay in SFM culture media (Example 1); assay type: cell-based
[4] = system: B. cinerea; settings: B. cinerea; for Antifungal activity relative to the wild-type GMA4C_AC control: in vitro, low cationic conditions
[5] = system: Listeria monocytogens (F5244); assay: Antibacterial growth inhibition in Mueller-Hinton media, OD600 (Example 3); assay type: cell-based; settings: Table 15; L. monocytogenes F5244; MH medium
[6] = system: C. parapsilosis; assay: MIC, CLSI M27/M38, half-strength potato dextrose broth (Example 2); assay type: cell-based, Candida parapsilosis; settings: Table 8; C. parapsilosis ATCC 22019
Experimental: (§1) MICs were determined at 24-72 hours.

[7] = system: Candida auris; assay: as above; assay type: cell-based; settings: Table 8
[8] = system: Candida auris; assay: Antifungal MIC in RPMI medium; settings: RPMI medium rich in cations
[9] = system: Candida albicans; assay: MIC, CLSI M27/M38, half-strength potato dextrose broth (Example 2); assay type: cell-based; settings: Table 8
[10] = system: Aspergillus fumigatus; assay: as above; assay type: cell-based; settings: for MIC (μg/ml) 100%: Table 8, Aspergillus fumigatus AF293
[11] = system: F. graminearum; settings: in vitro, low cationic conditions; F. graminearum
[12] = system: P. capsici; assay: In planta assay on tomato leaves (Example 1); assay type: in vivo; settings: applied on tomato leaves
From the text: Antifungal activity in planta.

[13] = system: Enterotoxigenic E. coli-F4; assay: Antibacterial growth inhibition in Mueller-Hinton media, OD600 (Example 3); assay type: cell-based; settings: Table 15, MH medium
Experimental: Salmonella Typhimurium var. Copenhagen, Enterotoxigenic E. coli-F4 and Listeria monocytogens (F5244) strains were grown overnight on an LB agar plate at 37_C. A small number of bacteria was scraped from the plate and added to Mueller-Hinton (MH) growth media and grown to log phase. Cells were diluted to 1-3×10^6 CFU/mL and 50 μl were added to each well in a polypropylene 96-well plate. Synthesized peptide GMA4C_V1A was diluted into 0.2% BSA, 0.0100 acetic acid solution and added to the concentration of 0.2, 0.4, 0.80, 1.6, 3.25, 7.5, 15, 30 and 60 and 120 μM. Then, 50 μl of each peptide solution was added to 50 μl of bacterial cells. Plates were parafilmed and incubated at 37° C. overnight. The concentrations at which bacterial growth inhibition was determined based on the OD600 nm value at each concentration relative to the OD600 nm value of MH medium alone and that of bacterial growth in MH medium without any peptide.

[14] = system: P. capsici; assay: Antifungal MIC assay in SFM culture media (Example 1); assay type: cell-based; settings: in vitro, low cationic conditions
[15] = system: Salmonella Typhimurium var. Copenhagen; assay: Antibacterial growth inhibition in Mueller-Hinton media, OD600 (Example 3); assay type: cell-based; settings: Table 15; S. Typhimurium var. Copenhagen; MH medium
[16] = system: Tricophyton metagrophytes; assay: MIC against human nail pathogens (Example 2); assay type: cell-based; settings: Table 13
[17] = system: Tricophyton rubrum; assay: MIC against human nail pathogens (Example 2); assay type: cell-based; settings: Table 13
[18] = system: F. solani; assay: MIC, CLSI M27/M38, half-strength potato dextrose broth (Example 2); assay type: cell-based; settings: Table 8; Fusarium F4 (F. solani)
Experimental: as §1

[19] = system: F. oxysporum; assay: as above; assay type: cell-based; settings: Table 8
Experimental: as §1

Compound	MIC (μg/ml) 100% ([2]; Coccidioides sp. Cocci 1) [µg/mL]	MIC (μg/ml) 100% ([2]; Coccidioides sp. Cocci2) [µg/mL]	MIC (μg/ml) 100% ([2]; Coccidioides sp. DI17-143) [µg/mL]	Antifungal activity relative to the wild-type GMA4C_AC control [4]	MIC (μg/ml) 100% [6] [µg/mL]	MIC (μg/ml) 100% ([7]; Candida auris DI17-46) [µg/mL]	MIC (μg/ml) 100% ([7]; Candida auris DI17-47) [µg/mL]	MIC (μg/ml) 100% ([7]; Candida auris DI17-48) [µg/mL]	MIC (μg/ml) 100% ([9]; Candida albicans ATCC 90028) [µg/mL]	MIC (μg/ml) 100% ([9]; Candida albicans CA3) [µg/mL]	MIC (μg/ml) 100% ([9]; Candida albicans SC5314) [µg/mL]	MIC (μg/ml) 100% [10] [µg/mL]	Antifungal activity relative to the wild-type GMA4C_AC control [11]	also measured
CC[C@H](C)[C@H](NC(=O)[C@H](CCCNC(=N)N)NC(=O)[C@@H](NC(=O)[C@H](CS)NC(=O)[C@H](Cc1ccccc1)NC(=O)[C@H](CS)NC(=O)[C@H](CCCNC(=N)N)NC(=O)[C@H](CCCNC(=N)N)NC(=O)[C@H](CCCNC(=N)N)NC(=O)[C@H](Cc1ccccc1)NC(=O)CNC(=O)[C@H](CCCCN)NC(=O)[C@H](CS)NC(=O)[C@H](CCCNC(=N)N)NC(=O)CNC(=O)CN)[C@@H](C)O)C(=O)N[C@@H](CS)C(N)=O [GMA4C_V1A] (H-GGRCKGFRRRCFCTRIC-NH2; N-terminus assumed)	8 (≈ 3.96 µM)	4 (≈ 1.98 µM)	8 (≈ 3.96 µM)	equivalent	4 (≈ 1.98 µM)	8 (≈ 3.96 µM)	8 (≈ 3.96 µM)	8 (≈ 3.96 µM)	8 (≈ 3.96 µM)	8 (≈ 3.96 µM)	8 (≈ 3.96 µM)	32 (≈ 15.9 µM)	equivalent	Antifungal activity against C. glabrata [1]: show antifungal activity; F. oxysporum MIC ([3]; Table 2, SFM culture media): 6 μuM; Antifungal activity relative to the wild-type GMA4C_AC control ([3]; in vitro, low cationic conditions, F. oxysporum): equivalent; Potency relative to GMA4C_AC in presence of cations ([4]; 100 mM NaCl or 100 mM KCl): 2 fold; Fungal growth inhibition at 6 μM ([4]; in presence of 2 mM CaCl2, peptide 6 μM): inhibit fungal growth; Concentrations at which growth inhibition was observed [5]: 15 to 30 µM; Antifungal activity against C. auris [8]: show antifungal activity; Reduction of disease symptoms caused by P. capsici [12]: more effective; Concentrations at which growth inhibition was observed [13]: 7.5 to 60 µM; Antifungal activity relative to the wild-type GMA4C_AC control [14]: equivalent; Concentrations at which growth inhibition was observed [15]: 15 to 60 µM
OeDef1_V3: OeDef1 variant of Table 13, printed with SEQ ID NO: 769, the number of GMAOe1C_V3 (GACLKNRHSKHYGWFWYYRHCY; not fully specified (C-terminus); cysteine pairing not given here)														MIC Tricophyton metagrophytes (26103) [16]: 4.0 µM; MIC Tricophyton rubrum (23014) [17]: 4.0 µM; MIC Aspergillus fumigatus (36843) ([10]; Table 13): >7.9 µM
CC[C@H](C)[C@H](NC(=O)[C@H](CCCNC(=N)N)NC(=O)[C@@H](NC(=O)[C@H](CS)NC(=O)[C@H](Cc1ccccc1)NC(=O)[C@H](CS)NC(=O)[C@H](CCCNC(=N)N)NC(=O)[C@H](CCCNC(=N)N)NC(=O)[C@H](CCCNC(=N)N)NC(=O)[C@H](Cc1ccccc1)NC(=O)CNC(=O)[C@H](CCCNC(=N)N)NC(=O)[C@H](CS)NC(=O)[C@H](CCCNC(=N)N)NC(=O)CNC(=O)CN)[C@@H](C)O)C(=O)N[C@@H](CS)C(N)=O [GMA4C_V2A] (H-GGRCRGFRRRCFCTRIC-NH2; N-terminus assumed)	8 (≈ 3.91 µM)	16 (≈ 7.82 µM)	16 (≈ 7.82 µM)	two-fold reduction	8 (≈ 3.91 µM)	16 (≈ 7.82 µM)	16 (≈ 7.82 µM)	16 (≈ 7.82 µM)	16 (≈ 7.82 µM)	16 (≈ 7.82 µM)	16 (≈ 7.82 µM)	32 (≈ 15.6 µM)	two-fold reduction	MIC (μg/ml) 100% [18]: 8 µg/mL (≈ 3.91 µM); MIC (μg/ml) 100% ([19]; Fusarium F1 (F. oxysporum)): 8 µg/mL (≈ 3.91 µM); MIC (μg/ml) 100% ([19]; Fusarium F2 (F. oxysporum)): 16 µg/mL (≈ 7.82 µM)
